Common to all, as to experiment: inhibition of tumour cell growth, NCI panel, 48 h
Assay [1] relates to DU-145.
Assay [2] has as its system K562.
Assay [3] deals with MDA-MB-231.
The subject of assay [4] is 786-0.
The test system of assay [5] is NCI-H23.
Assay [6] has as its system EKVX.
Assay [7] has as its system OVCAR-3.
For assay [8], the system named is SF-539.
The subject of assay [9] is OVCAR-5.
The subject of assay [10] is HCC 2998.
For assay [11], the system named is NCI-H226.
The subject of assay [12] is RXF 393.
For assay [13], the system named is IGROV-1.
Assay [14] has as its system CAKI-1.
The test system of assay [15] is HCT-15.
The subject of assay [16] is SK-MEL-2.
Assay [17] concerns PC-3.
Assay [18] deals with CCRF-CEM.
Assay [19] relates to SR.
Assay [20] deals with OVCAR-4.

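Tested at 5 concentrations; 48 h exposure; 96-well plates; endpoints linearly interpolated, else capped at highest concentration. At the GI50, growth is halved.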 Active and inactive are the calls of the source. No stated cut-off is given here; in the data, active = GI50 up to about 1.1 µM and inactive = higher.

Take `C=CCN1C(=O)/C(=C/c2ccc(C)cc2)NC1=S`: the GI50 was > 100 µM (inactive) in [1]; 41.9 µM (inactive) in assay [2]; 60.1 µM (inactive) in assay [3]; > 100 µM (inactive) in assay [4]; 57.5 µM (inactive) in assay [5]; 37.8 µM (inactive) in [6]. The GI50 in [7] was > 100 µM (inactive); in assay [8], > 100 µM (inactive); in [9] it was > 100 µM (inactive); in assay [10], > 100 µM (inactive); in assay [11] it was 88.3 µM (inactive); in assay [12], > 100 µM (inactive). Besides, the GI50 is > 100 µM (inactive) in [13]; > 100 µM (inactive) in assay [14]; more than 100 µM in assay [15]; > 100 µM (inactive) in [16]; > 100 µM (inactive) in [17]; 33 µM (inactive) in assay [18]. In addition, the GI50 in assay [19] was 85.9 µM (inactive); in assay [20], 57 µM (inactive).

Turning to `CCC1(OC(=O)CNC)C(=O)OCc2c1cc1n(c2=O)Cc2cc3ccccc3nc2-1` (stereo not given), the GI50 in assay [1] is < 0.01 µM (active); in assay [2] it was 0.0303 µM (active); in [3] it was 0.31 µM (active); in assay [4] it was < 0.01 µM (active); in [5] it was < 0.01 µM (active); in assay [6] it was 0.127 µM (active). The GI50 in assay [7] is 0.0713 µM (active); in assay [8], < 0.01 µM (active); in assay [9], 0.0247 µM (active); in assay [10], 0.204 µM (active); in assay [11] it was < 0.01 µM (active); in assay [12], 0.0185 µM (active). Further, the GI50 in assay [13] was 0.0601 µM (active); in [14], < 0.01 µM (active); in [15] it was 0.0942 µM; in assay [16], 0.155 µM (active); in assay [17] it was 0.0269 µM (active); in assay [18] it was < 0.01 µM (active). Moreover, the GI50 in assay [19] is < 0.01 µM (active); in [20], 0.0977 µM (active).

In the case of `CC1=NN(c2nc(N)nc(CN3CCOCC3)n2)C(C)(C)C1`, the GI50 in assay [1] was > 100 µM (inactive); in assay [2] it was > 100 µM (inactive); in assay [3], > 100 µM (inactive); in assay [4], 15.2 µM (inactive); in [5], > 100 µM (inactive); in [6], 31.8 µM (inactive). The GI50 in assay [7], in [8], in assay [9], in assay [10], in assay [11] and in [12] was > 100 µM (inactive) throughout. The GI50 in assay [13] was 16.9 µM (inactive); in [14], 20.2 µM (inactive); in [15], more than 100 µM; in assay [16], > 100 µM (inactive); in [17], > 100 µM (inactive); in [18], 30.1 µM (inactive). Also, the results for the GI50 in [19] and in assay [20] were 30.1 µM (inactive) and 20.5 µM (inactive), respectively.

For the compound `COC(=O)C(NC(=O)CNC(=O)CSc1nnc(COc2ccc(Cl)cc2)n1-c1ccccc1)C(C)C` (stereo not given), the GI50 in assay [1] was 18.8 µM (inactive); in assay [2], 33.3 µM (inactive); in assay [3] it was 18.5 µM (inactive); in [4], 18.4 µM (inactive); in [5], 20 µM (inactive); in assay [6], 35.9 µM (inactive). Besides, the GI50 is 17.3 µM (inactive) in assay [7]; 17.1 µM (inactive) in [8]; 18.2 µM (inactive) in assay [9]; 18.5 µM (inactive) in assay [10]; 19.1 µM (inactive) in [11]; 18.1 µM (inactive) in [12]. For the same compound, the GI50 was 18.8 µM (inactive) in assay [13]; 14.7 µM (inactive) in [14]; 21.2 µM in assay [15]; 20.8 µM (inactive) in [16]; 17.9 µM (inactive) in assay [17]; 21.7 µM (inactive) in assay [18]. Also, the GI50 in assay [19] was 11.1 µM (inactive); in [20], 22.1 µM (inactive).

With `COc1cccc(C2SCC(=O)N2c2ccc(-n3c(-c4ccccc4)nc4ccccc4c3=O)cc2)c1OC` (stereo not given), the GI50 in assay [1], in assay [2], in [3], in assay [4], in [5] and in assay [6] was > 100 µM (inactive) throughout. Moreover, the GI50 in assay [7] is > 88.7 µM (inactive); in assay [8], > 100 µM (inactive); in [9], > 100 µM (inactive); in assay [10], > 100 µM (inactive); in [11], > 87.9 µM (inactive); in assay [12], > 100 µM (inactive). Also, the GI50 in assay [13] was > 100 µM (inactive); in assay [14], > 100 µM (inactive); in assay [15], more than 100 µM; in assay [16] it was > 100 µM (inactive); in assay [17], > 100 µM (inactive); in [18] it was > 100 µM (inactive). The GI50 in [19] and in assay [20] was > 100 µM (inactive) in each case.

`NC(=O)c1ccc(S(=O)(=NS(=O)(=O)c2ccccc2)c2ccc(C(N)=O)cc2)cc1`: the GI50 in assay [1], in assay [2], in assay [3], in assay [4], in assay [5] and in [6] was > 100 µM (inactive) throughout. For the same compound, the GI50 in [7], in assay [8], in assay [9], in [10], in assay [11] and in assay [12] was > 100 µM (inactive) in each case. For the same compound, the GI50 in assay [13] is > 100 µM (inactive); in [14], > 100 µM (inactive); in assay [15], more than 100 µM; in [16], > 100 µM (inactive); in assay [17], > 100 µM (inactive); in assay [18], > 100 µM (inactive). In addition, the GI50 in [19] and in assay [20] was > 100 µM (inactive) throughout.

In the case of `C[C@]12CC[C@H]3[C@@H](CCC4=CC(=O)C=C[C@@]43OC(=O)C(F)(F)F)[C@@H]1CCC2=O`, the GI50 in assay [1] was > 100 µM (inactive); in [2] it was > 100 µM (inactive); in [3] it was > 100 µM (inactive); in [4], > 45.6 µM (inactive); in [5], > 100 µM (inactive); in assay [6] it was > 100 µM (inactive). For the same compound, the GI50 in assay [7], in assay [8], in [9], in assay [10], in assay [11] and in assay [12] was > 100 µM (inactive) each time. Besides, the GI50 in assay [13] was > 100 µM (inactive); in assay [14], > 100 µM (inactive); in [15] it was more than 100 µM; in assay [16], > 100 µM (inactive); in assay [17], > 100 µM (inactive); in [18] it was > 100 µM (inactive). The GI50 in assay [19] and in assay [20] was > 100 µM (inactive) each time.

In the case of `CN(C)CCCNC(=O)CCNC(=O)c1cc(NC(=O)c2cc(NC(=O)c3cc(NC(=O)c4nc(NC(=O)CCCNC(=O)c5cc(NC(=O)c6cc(NC(=O)c7cc(NC(=O)c8nccn8C)cn7C)cn6C)cn5C)cn4C)cn3C)cn2C)cn1C`, the GI50 in assay [1], in assay [2], in assay [3], in assay [4], in [5] and in assay [6] was > 100 µM (inactive) throughout. The GI50 in assay [7], in [8], in assay [9], in assay [10], in assay [11] and in [12] was > 100 µM (inactive) in each case. The GI50 is > 100 µM (inactive) in [13]; > 100 µM (inactive) in assay [14]; more than 100 µM in assay [15]; > 100 µM (inactive) in assay [16]; > 100 µM (inactive) in [17]; > 100 µM (inactive) in [18]. The GI50 in assay [19] and in assay [20] was > 100 µM (inactive) each time.

The record behind these values is ChEMBL document CHEMBL1201862, “PubChem BioAssay data set” (2004).
